Assays:
CB2R = target: T1, CB2R (Rattus norvegicus, UniProt Q9QZN9); assay type: in vivo; conditions: male, Wistar, rat, in vivo
T1 construct: from tissue; host or cells: rat spleen: cryosections in vitro, and spleen of living Wistar rats in PET
T1 sequence (Q9QZN9 1-360): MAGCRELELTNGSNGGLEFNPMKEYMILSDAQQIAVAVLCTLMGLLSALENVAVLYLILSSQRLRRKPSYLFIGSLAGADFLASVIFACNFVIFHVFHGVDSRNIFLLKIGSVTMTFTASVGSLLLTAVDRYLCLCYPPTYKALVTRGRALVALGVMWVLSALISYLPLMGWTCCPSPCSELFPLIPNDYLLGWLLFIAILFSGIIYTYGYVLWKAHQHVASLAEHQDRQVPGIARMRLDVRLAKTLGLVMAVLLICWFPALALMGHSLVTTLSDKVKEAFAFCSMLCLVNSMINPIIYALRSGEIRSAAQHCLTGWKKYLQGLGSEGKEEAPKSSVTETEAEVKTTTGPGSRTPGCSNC
Protocol: The dynamic biodistribution of the radiotracer in the lower body of rats was assessed by small animal PET (Nanoscan, Mediso, Hungary) over 60 min with a subsequently T1-weighted MR. Anaesthetized (2% isoflurane, carrier gas mixture of 40% air and 60% O2) male Wistar rats (body weight: 205–308 g, age: 8–10 weeks, no gender-specific differences were taken into account) were kept during imaging on a heated animal bed to sustain body temperature and were pretreated with vehicle (DMSO:Kolliphore EL:0.9% saline, 1:2:7), JHU94620-d8 (1.5 mg kg^−1 bodyweight) or with GW405833 (5 mg kg^−1 bodyweight) 5 min prior tracer application ([^18F]JHU94620-d8: 7.7–28.2 MBq, 0.4 to 3.2 nmol kg^−1 bodyweight), whereby all injections were administered intravenously. For the evaluation of the hCB2R-specific binding of the radiotracer in the brain, female Wistar rats (n = 6, 253–269 g, age: 8 month) were used carrying stereotactically injected constructs of AAV2/7-CaMKII0.4-intron-hCB2R(D80N) in the right striatum and AAV2/7-CaMKII0.4-intron-3flag-eGFP in the control/contralateral striatum (Vandeputte et al. [2011]). 21–26 MBq corresponding to 0.2 to 2.0 nmol kg^−1 bodyweight radiotracer were injected, whereas in displacement studies 5 mg kg^−1 bodyweight GW405833 was administered 20 min after the radiotracer (each n = 3). The PET scans were performed six months after the stereotactic injections of the AAV2/7-constructs.
The acquisitions were performed in normal mode and a coincidence mode 1–5. For subsequent dynamic reconstructions list mode data were sorted into sinograms (12 × 10 s, 6 × 30 s, 5 × 60 s and 10 × 300 s). The frames were reconstructed by Ordered Subset Expectation Maximization applied to 3D (OSEM3D) sinograms corrected for decay and attenuation (4 iterations, 6 subsets and a voxel size of 0.4 mm^3) with the Nucline software v2.01 (Mediso, Budapest, Hungary). Analyses of reconstructed studies were performed with PMOD software (v4.205, PMOD Technologies LLC, Fällanden, Switzerland) and results are expressed in standardized uptake values (SUVs) or normalized to a reference region (SUVr).

in vitro = in vitro ADME; conditions: microsomes, pH 7.4
Protocol: For microsomal incubations liver microsomes from human (HLM, 50 donors, 20 mg/mL) and rat (RLM, Sprague Dawley, 20 mg/mL) were purchased from Thermo Fisher Scientific GmbH (Dreieich, Germany). Testosterone and β-nicotinamide adenine dinucleotide 2′-phosphate reduced tetrasodium salt (NADPH) were purchased from Sigma-Aldrich (Merck KGaA, Darmstadt, Germany) and Dulbecco’s PBS (DPBS) (without Ca^2+ and Mg^2+) was purchased from Biochrom GmbH (Berlin, Germany). Analyses of samples for comparison of radiometabolite patterns were performed by radio-HPLC using method B, for determination of time dependency of the metabolic depletion using method C.
The final concentrations are given in brackets. […] The mixtures were vortexed and shaken gently at 37 °C using the BioShake iQ (QUANTIFOIL Instruments, Jena, Germany) for 5, 10, 15, 30, 45, and 60 min (for HLM) or 15, 30, 45, and 60 min (for RLM). […] The supernatants were separated and analyzed by radio-HPLC to determine the fractions of unchanged [^18F]JHU94620-d8. Efficiencies of extracted activity were determined as described in “Quantification of radiometabolites”. […]
To determine the metabolic stability in HLM and RLM, both the natural logarithm of the determined unchanged percentage of [^18F]JHU94620-d8 was plotted versus incubation time, which allowed the calculation of the in vitro half-lives as described previously (Chai et al. [2022]).

## [2H]C([2H])([18F])C([2H])([2H])C([2H])([2H])C([2H])([2H])n1c(C)c(C)s/c1=N\C(=O)C1C(C)(C)C1(C)C [[^18F]JHU94620-d8]
CB2R
  SUVr(spleen-to-blood) at late time points: about 1.5
  spleen SUVmean at late time points: about 0.5 SUVmean
In vitro; Sprague Dawley, rat
  half-life: 10.8 ± 2.4 min
In vitro; human
  half-life: 2.1 ± 0.7 min
